Measurements reported in patent US20060182726A1, “Immunomodulating compositions, processes for their production and uses therefor” (The University of Queensland, priority 2002, published 2006).
Values belong to the compound of their own block, whether it stands above or below them. Where a SMILES comes first, the peptide text is derived from it. The star is where a group is joined. Cbz = O=C(OCc1ccccc1)*; OtBu = CC(C)(C)O*

Experiments:
BMDCs = experiment: Cell surface marker expression, yield and viability of murine BMDCs generated with BAY (flow cytometry); assay type: cell-based
Protocol: To independently assess the relationship between RelB nuclear translocation and tolerance induction, BMDCs were generated in the presence or absence of the compound BAY 11-7082 (BAY). […] Murine BM precursors were incubated for 6 days with GM-CSF and IL-4 to produce BMDCs, in the presence or absence of BAY. All NF-κB subunits were demonstrable in BMDCs generated in the absence of BAY, and were present in both nuclear and cytoplasmic extracts (FIG. 2a). […] However, CD86 was expressed at higher levels in BAY-treated DCs than RelB-deficient DCs. […] The ability of adoptively-transferred BAY-treated DCs to prime an mBSA-specific T cell proliferative response in naïve syngeneic mice when pulsed with the antigen mBSA was reduced, compared with mBSA-pulsed untreated BMDCs, or immunisation with mBSA and CFA (FIG. 2c).
According to the inventors' experience, every new batch of BAY needs to be titrated. The final concentration for mouse BMDC cultures may range between 2 and 15 μM. Since tolerance induction correlates precisely with CD40 expression by the DC, varying concentrations of BAY are added to BM DC cultures. At day 6-8, yield is check and viability test using PI and CD40 expression by FACS. […]
BMDCs were incubated for 30 min on ice with anti-CD86-FITC (GL1, PharMingen, San Diego, Calif.), anti-CD11c-PE (HL3, PharMingen), anti-CD11b-PE (M1/70, PharMingen), F4/80-PE (Serotec, Raleigh, N.C.), CD8α-PE (53-6.7, PharMingen), CD3-PE (17A2, PharMingen), or with anti-CD40 (3/23, PharMingen), anti-CD19 (1D3, American Type Culture Collection, ATCC), anti-Ly6-g and c (Gr1, RB6-BC5), anti-CD45R (B220, RA3-6B2, each a gift from G. Hill, Queensland Institute for Medical Research, Brisbane, Q1d), anti-MHC class I and anti-MHC class II (2G9, PharMingen), followed by biotinylated rabbit anti-rat Ig (DAKO, CA) and then streptavidin-FITC (DAKO). After washing, cells were analyzed using a FACScalibur (Becton Dickinson, San Jose, Calif.). Intracellular cytokine production was measured in lymphocytes by flow cytometric staining as described, with minor modifications (Sander et al., 1991). […]

[1] = tested on: human monocyte-derived DC; experiment: Phenotype of human monocyte-derived DC by flow cytometry; assay type: cell-based; conditions: human monocytes 48 hours, GM-CSF, IL-4; 10 κM BAY11-7082 or 2.5 or 10 μM PSI; relative to immature DC
Protocol: FIG. 8 is a graphical representation showing that modified human DC lack CD40 compared to immature DC. MDDC were generated for 48 h from PB monocytes in the presence of GM-CSF and IL-4 in the presence (modified DC) or absence (immature DC) of BAY, then stained for various cell surface markers and analysed by flow cytometry.
FIG. 9 is a graphical representation showing that modified human DC are unresponsive to CD40L. MDDC were generated for 48 h from PB monocytes in the presence of GM-CSF and IL-4 in the presence (modified DC) or absence (immature DC) of BAY, washed then incubated with or without 50 ng/ml soluble CD40L. Cells were then stained for CD86 and HLA-DR and analysed by flow cytometry.
FIG. 22 is a graphical representation showing the phenotype of NF-κB^− dendritic cells is reproducible with different NF-κB inhibitors. Dendritic cells were generated from human monocytes for 48 hours in the presence of GM-CSF, IL-4 and in the presence or absence of either 10 μM BAY11-7082 or 2.5 or 10 μM PSI (N-benzyloxycarbonyl-Ile-Glu(O-tert-butyl)-Ala-leucinal). Cells were then stained with anti-CD40, anti-CD86, anti-HLA-DR and anti-MHC class I mAb (green lines) and compared with isotype control staining (purple) by flow cytometry.
Human PB monocytes were purified from PBMC by immunomagnetic selection using anti-CD14. They were incubated for 48 h in the presence of 800 U/mL each GM-CSF and IL-4 in RPMI and 10% FCS in the presence or absence of 8 μM BAY 11-7082. Nuclear extracts were prepared and RelB DNA binding was assessed using ELISA, as previously described (O'Sullivan and Thomas, 2002). […] In keeping with the lack of CD40 expression, modified DC were unresponsive to 24 h incubation with 500 ng/mL soluble CD40 ligand trimer (sCD40L, Immunex, Seattle Wash.).
The present inventors examined whether the phenotype of the described dendritic cells that are capable of inducing tolerance when transferred in vivo, is reproducible when dendritic cells are generated with various NT-κB^− inhibitors. Dendritic cells were generated from human monocles for 48 hours in the presence of GM-CSF, IL-4 and in the presence or absence of either 10 […] of the IκB phosphorylation inhibitor BAY11-7082 or 2.5 or 10 μM of the proteasome inhibitor PSI (N-benzyloxycarbonyl-Ile-Glu(O-tert-butyl)-Ala-leucinal).

NF-κB = conditions: Pierce et al., 1997; cited from earlier work
RelB [2] = experiment: RelB DNA binding ELISA on nuclear extracts of monocyte-derived DC; assay type: cell-based; conditions: human PB monocytes 48 h with GM-CSF and IL-4, 8 μM BAY 11-7082
Protocol: FIG. 7 is a graphical representation showing that nuclear extracts from BAY-treated monocyte-derived DC (MDDC) lack RelB-DNA binding and are unresponsive to LPS. MDDC were generated for 48 h from PB monocytes in the presence of GM-CSF and IL-4 in the presence (BAY DC) or absence (control DC) of 8 μM BAY, then stimulated with 1 μg/mL LPS for 24 hr. Nuclear extracts were prepared and analysed for NFkB DNA binding by ELISA.
Human PB monocytes were purified from PBMC by immunomagnetic selection using anti-CD14. They were incubated for 48 h in the presence of 800 U/mL each GM-CSF and IL-4 in RPMI and 10% FCS in the presence or absence of 8 μM BAY 11-7082. Nuclear extracts were prepared and RelB DNA binding was assessed using ELISA, as previously described (O'Sullivan and Thomas, 2002). […]
p50 and RelB DNA binding was detected by ELISA using a Mercury Transfactor p50 Kit (Clontech, Calif.). 10 μg of nuclear extract were bound to wells coated with NF-κB consensus oligonucleotide then incubated with either anti-RelB (sc-226) or anti-p50 (sc-7178), followed by anti-rabbit […] Ig (Silenus) and then detected by measuring color development of TMB at 650 nm using a Multiskan plate reader (Labsystems) (O'Sullivan and Thomas, 2002).

NF-κB subunits = experiment: Immunoblot of nuclear and cytoplasmic extracts of BMDCs for NF-κB subunits; assay type: cell-based; conditions: murine BM precursors 6 days with GM-CSF and IL-4 in the presence of BAY
Protocol: To independently assess the relationship between RelB nuclear translocation and tolerance induction, BMDCs were generated in the presence or absence of the compound BAY 11-7082 (BAY). […] Murine BM precursors were incubated for 6 days with GM-CSF and IL-4 to produce BMDCs, in the presence or absence of BAY. All NF-κB subunits were demonstrable in BMDCs generated in the absence of BAY, and were present in both nuclear and cytoplasmic extracts (FIG. 2a). […] However, CD86 was expressed at higher levels in BAY-treated DCs than RelB-deficient DCs. […]
Nuclear and cytoplasmic extracts were prepared as previously described (Pettit et al., 1997) and protein estimations carried out using a Protein Assay kit (Bio-Rad, Hercules, Calif.). […] Following transfer to nitrocellulose (Amersham. Sussex, England), membranes were immunoblotted with either anti-RelB (sc-226), anti-p50 (sc-7178), anti-c-Rel, anti-RelA, or anti-p52 antibodies (all from Santa Cruz Biotechnology) followed by sheep anti-rabbit HRP-conjugated Ig (Silenus, Hawthorn, Australia) and then detected by enhanced chemiluminescence (ECL, Life Technologies, MO, USA) according to the manufacturer's instructions (Amersham).

RelB [3] = conditions: LPS-treated monocyte-derived dendritic cells; cited from earlier work
[4] = murine BMDCs generated in the presence of BAY

- RelB nuclear DNA binding activity (RelB [2]): lacked RelB nuclear DNA binding activity
SMILES: Cc1ccc(S(=O)(=O)/C=C/C#N)cc1 [BAY 11-7082]
- toxicity: yield and viability of BM DC cultures (BMDCs; concentrations higher than the minimum that suppresses CD40): more toxic and affect yield and viability
- MHC class I and class II expression (BMDCs; [4]): expressed reduced levels of MHC class I and class II
- cell surface CD40 expression (BMDCs; [4]): lacked cell surface CD40 expression
- CD40 expression [1]: CD40 expression was suppressed
- CD86 and MHC class I expression [1]: CD86 and MHC class I expression were not changed
- HLA-DR expression [1]: HLA-DR was reduced
- TNF-α-stimulated NF-κB translocation (NF-κB): block TNF-α-stimulated NF-κB translocation through inhibition of IκB phosphorylation
- NFκB subunit immunoreactivity in nuclear and cytoplasmic extracts (NF-κB subunits): in the cytoplasm but not the nucleus

SMILES: CC[C@H](C)[C@H](NC(=O)OCc1ccccc1)C(=O)N[C@@H](CCC(=O)OC(C)(C)C)C(=O)N[C@@H](C)C(=O)N[C@H](C=O)CC(C)C [PSI, N-benzyloxycarbonyl-Ile-Glu(O-tert-butyl)-Ala-leucinal] (Cbz-IE(OtBu)AL-aldehyde)
- CD40 expression [1]: CD40 expression was suppressed
- CD86 and MHC class I expression [1]: CD86 and MHC class I expression were not changed
- HLA-DR expression [1]: HLA-DR was reduced

SMILES: C[S+]([O-])c1ccc(-c2nc(-c3ccncc3)c(-c3ccc(F)cc3)[nH]2)cc1 (stereo not shown) [SB203580]
- nuclear RelB translocation (RelB [3]): blocks nuclear RelB translocation
